This note sets out measurements from article PMC12903969, “Discovery of a Novel and Potent Kir4.1 Inhibitor as a Safe and Rapid‐Onset Antidepressant Agent in Mice” (Advanced Science, 2025).

Values joined by “and” are separate entries in the source; they are usually repeats but may differ in a detail not shown here. Equal values may be shown once. Read-outs that look alike come from different tables or passages of the source.

In data set [1] the test system is primary cortical astrocytes (native Kir4.1 channels). Kind of data set: Patch clamp of primary cultured WT astrocytes (native Kir4.1). Format: cell-based, mouse. As to conditions: JX3212 3 µM; BaCl2 100 µM. How it is done: Astrocytes were isolated and cultured as previously described.^[ [16] ^] Briefly, the cortices from P1‐P4 mouse pups were dissected and incubated for 25 min in Hank's Balanced Salt Solution (22.5 ml) with 2.5% trypsin (2.5 ml) at 37 °C. Cells were dissociated in cultured medium (DMEM/F12 supplemented with 10% fetal bovine serum and 1% penicillin and streptomycin) and filtered with a 70‐µm cell strainer. Cell suspensions were cultured in PDL‐pretreated 75‐cm^2 flasks for the initial seven days, with half of the medium replaced every 2 days. Subsequently, the cultures were shaken at 220 rpm for 6 h at 37 °C to remove microglia and oligodendrocytes from the astrocyte layers. The astrocytes were harvested, reseeded in two new flasks, and cultured in an incubator for 14 days. For Kir4.1 deletion in cell cultures, 4‐OH tamoxifen (final concentration: 1 µM, Felixbio) was added into Kir4.1^flox/flox: Aldh1l1‐Cre/ERT2 cortical cultures at DIV 2 and DIV 4, respectively, and completely removed at DIV7 when astrocytes were reseeded in fresh culture medium.
Whole‐cell patch‐clamp recordings were obtained either in transiently transfected CHO‐K1 cells or in primary cultured astrocytes at room temperature using standard patch‐clamp techniques with an Axopatch‐700B amplifier (Axon Instruments). The signals were filtered at 2 kHz and sampled at 20 kHz using the Digidata 1440A interface (Axon Instruments). The resistance of borosilicate glass pipettes was typically 2–4 MΩ when filled with the internal solution. Drug application was facilitated using a BPS perfusion system (ALA Scientific Instruments). Macroscopic currents generated by expressed potassium channels were recorded under the voltage‐clamp conditions with an internal pipette solution composed of (in mM): 140 KCl, 5 NaCl, 1 CaCl2, 1 MgCl2, 10 HEPES, and 10 EGTA, pH 7.2 adjusted with KOH. The external solution contained (in mM): 140 NaCl, 5 KCl, 2 CaCl2, 1 MgCl2, 10 glucose, and 10 HEPES, pH 7.4 adjusted with NaOH. Currents were elicited with a hyperpolarized voltage at −120 mV from the holding potential of −80 mV, followed by a ramp voltage depolarizing to +50 mV. Astrocytic resting membrane potentials were recorded under current‐clamp conditions (I = 0 pA) using standard internal and external solutions, determined immediately after achieving whole‐cell mode.

A further data set addresses T1, Kir4.1 (Homo sapiens, UniProt P78508).
T1 construct: host or cells: CHO-K1
T1 sequence (P78508 1-379): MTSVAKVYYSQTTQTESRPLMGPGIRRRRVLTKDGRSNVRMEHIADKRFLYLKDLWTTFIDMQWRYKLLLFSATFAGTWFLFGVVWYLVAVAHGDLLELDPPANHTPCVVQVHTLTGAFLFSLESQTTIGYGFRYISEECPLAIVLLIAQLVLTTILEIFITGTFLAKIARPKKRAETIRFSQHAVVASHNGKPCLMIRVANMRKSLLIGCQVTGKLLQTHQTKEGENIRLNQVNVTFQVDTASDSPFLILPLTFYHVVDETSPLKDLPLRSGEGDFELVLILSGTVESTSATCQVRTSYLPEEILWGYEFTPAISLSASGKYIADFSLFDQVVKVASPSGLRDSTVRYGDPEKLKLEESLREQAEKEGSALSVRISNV
The data set is described as follows: Whole-cell patch clamp, Kir4.1 currents in transfected CHO-K1 cells. Format: cell-based. Particulars: for inhibition at 1 µM: CHO-K1, 1 μM; for inhibition at 10 µM: CHO-K1, 10 μM. A digest of the protocol: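 Transiently transfected CHO-K1 cells (with EGFP), whole-cell voltage clamp at room temperature; pipette 140 mM KCl pH 7.2, bath 140 mM NaCl/5 mM KCl pH 7.4. Currents evoked from −80 mV holding by a step to −120 mV then ramp to +50 mV; compounds applied by perfusion.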

Data set [2] concerns MDA-MB-468 breast cancer cells. Kind of data set: Cytotoxicity test (CCK-8). Format: cell-based. Particulars: read-out: IC50 ± SD (μM) for MDA-MB-468 Inhibition. A digest of the protocol: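 Cells seeded at 12,000/well in L15 for 24 h, then exposed 48 h to compounds at 0.41-100.00 µM (DMSO <0.4%). Viability by 10% CCK-8, 2 h at 37 °C, absorbance 450 nm, expressed as percent of control.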

For data set [3], the system named is C57BL/6J mice. The data set is described as follows: Novelty-suppressed feeding test (NSFT). Format: in vivo. The procedure: The mice were individually housed in new cages and deprived of food for 24 h. The testing equipment was a brightly lit plastic box measuring 40 × 40 × 30 cm^3 with a light intensity of 1100–1200 lux. Each mouse was positioned in a corner of the device with one food pellet located at the center. The latency to start chewing food was recorded within 5 min. Immediately thereafter, the mice were placed back in their home cage with pre‐measured food, and the amount consumed in the next 5 min was used as a baseline to account for appetite changes that might affect the outcome.

Data set [4] deals with C57BL/6J mice. Kind of data set: Open field test (OFT) after chronic administration. The class given is in vivo. Particulars: chronic 10 mg kg−1 per day. The procedure: This test was used to assess anxiety‐related behaviors in the mice. C57BL/6J mice were individually habituated to a 40 × 40 × 40 cm^3 open field arena under dim light for […]. Locomotor activity during the final 5 min was digitally recorded (30 fps) and analyzed using Tracking Master (Future Life Science (Shanghai) Co., Ltd., Shanghai, China). The primary endpoints included the total ambulatory distance (cm) and center‐zone exploration frequency (20 × 20 cm^2 central area).

In data set [5] the test system is mice. The data set is described as follows: Y-maze. Format: in vivo. Particulars: chronic 10 mg kg−1 per day. The procedure: This test was designed to evaluate spatial working memory. Briefly, mice were individually placed in a symmetrical Y‐maze and allowed to explore for 8 min. Entries were counted only when both hind paws crossed the arm threshold. Correct spatial alternation was defined as an entry into all three arms in an uninterrupted sequence (e.g., ABC, BCA or CAB each representing one alternation). The alternation percentage was derived as: [correct alternations/(total entries–2)] × 100%. After each session, the walls and floor of the maze were wiped with 75% ethanol and allowed to dry before the next animal was tested.

In data set [6] the test system is mice. The data set is described as follows: Shuttle box test (SBT). Format: in vivo. The procedure:
This test was designed to measure learning and memory function in rodents. The shuttle box consists of two compartments connected by a freely passable gate. The mice were allowed to explore the test chamber freely for 5 min before the test to eliminate exploratory reflexes. Each mouse was placed in one compartment of the shuttle box. The conditioning protocol began with a 5‐s conditioned stimulus presentation of light (200 lux) and auditory tone (100 dB, 1000 Hz), followed immediately by a 3‐s footshock (300 µA) unconditioned stimulus. Escape to the opposite compartment during the conditioned stimulus presentation was scored as an active avoidance response, whereas escape occurring only after shock onset was recorded as […]. […] Each test session consisted of 40 trials with 10‐s inter‐trial intervals, with the number of active avoidance responses systematically recorded.

Data set [7] relates to mice. Kind of data set: Rotarod test (RT). The class given is in vivo. Particulars: chronic 10 mg kg−1 per day. How it is done:
The rotarod test was designed to evaluate the coordination and motor performance of rodents. The speed and time were set for the rod rotators. All experimental mice were allowed to adapt to a lower speed (5 rpm). For the formal test, the mice were placed on a rod spinning at 20 rpm, and the duration that the mice were able to hold on the rod at this speed was recorded. The maximum test duration was 20 min.

The test system of data set [8] is mice. The data set is described as follows: Treadmill test (TT). Format: in vivo. As to conditions: chronic 10 mg kg−1 per day. The procedure: This test was designed to quantify locomotor endurance in rodents. The time (300 s) and speed (maximum: 30 rpm) parameters for the treadmill were set using a digital panel and the mice were placed in lanes. Gentle electrical probes (0.3 mA) served as motivational stimuli. Total distance traveled was automatically recorded using rotary encoder integration.

The test system of data set [9] is mice. Kind of data set: 21-day chronic administration: body weight, organ weight, serum biochemistry.
[10] abbreviates: serum, 10 mg/kg, 21-day chronic administration, individual animals.

With `[Ba+2].[Cl-].[Cl-]` [BaCl2, reference compound], the “astrocytic resting membrane potential (in words)” value in data set [1] was “marked depolarization”.

As to `c1ccc2c(c1)oc1ccc(Nc3ccnc(NCCCN4CCCOCC4)n3)cc12` [JX3250, N^2-(3-(1,4-oxazepan-4-yl)propyl)-N^4-(dibenzo[b,d]furan-2-yl)pyrimidine-2,4-diamine], the inhibition at 1 µM came out at 44 ± 9.96% on Kir4.1 (+50 mV, read-out: Kir4.1 Inhibition ± SD (%) at 1 μM, +50 mV) and 30.4 ± 8.64% on Kir4.1 (-120 mV, read-out: Kir4.1 Inhibition ± SD (%) at 1 μM, -120 mV). Further, the inhibition at 10 µM at Kir4.1 (+50 mV, read-out: Kir4.1 Inhibition ± SD (%) at 10 μM, +50 mV) is 97.4 ± 1.14%; on Kir4.1 (-120 mV, read-out: Kir4.1 Inhibition ± SD (%) at 10 μM, -120 mV) it was 88.3 ± 4.59%. Besides, the IC50 in data set [2] (Homo sapiens, MDA-MB-468, MDA-MB-468 breast cancer cells) came to 12.2 ± 0.87 µM.

Take `CN(C)CCCN1c2ccccc2CCc2ccccc21` [imipramine]: the “NSFT antidepressant-like effect (in words)” value in the data set on C57BL/6J mice [3] (imipramine 15 mg kg−1, single administration) was “failed to produce antidepressant‐like effects”. Also, the “food intake in home cage after NSFT (in words)” value in the data set on C57BL/6J mice [3] (repeated administration, vs vehicle) is given as “significant increase in food intake”. In addition, the “NSFT antidepressant-like response after repeated administration (in words)” value in the data set with C57BL/6J mice [3] (seven days, imipramine 15 mg kg−1, JX3212 3/10 mg kg−1) is on record as “elicited significant antidepressant‐like responses”. For the same molecule, the “OFT total and central distance traveled (in words)” value in the data set with C57BL/6J mice [4] is recorded as “no pronounced differences”. For the same molecule, the “Y-maze alternation percentage vs vehicle (in words)” value in the data set on mice [5] is reported as “significantly reduced”. Moreover, in the data set with mice [6] (chronic 10 mg kg−1 per day), the “shuttle box active avoidance responses (in words)” value is recorded as “no significant differences”. For the same molecule, in the data set on mice [6] (chronic 10 mg/kg per day (Fig 5G)), the “SBT active avoidance responses, single mice” value was 27 and 32 and 29 and 20 and 23 and 22. For the same molecule, in the data set on mice [7], the “rotarod falling latency vs vehicle (in words)” value is reported as “notably reduced falling latency”. Moreover, the “treadmill running distance vs vehicle (in words)” value in the data set on mice [8] was “notably reduced”. Besides, in the data set with mice [9] (10 mg kg−1 per day, vs vehicle), the “body weight during 21-day chronic administration (in words)” value is reported as “marked increase in body weight”. Further, the Body weight in the data set on mice [9] (10 mg/kg, day 7, individual animals) is 24.5 (2×) and 25.5 (2×) and 25.8 and 25.3 and 24.2 and 25.4 and 24.9 and 26; in the data set on mice [9] (10 mg/kg, day 8, individual animals), 25.5 and 24.5 and 24.8 (2×) and 26.1 and 24.4 and 25.3 (2×) and 26.2 and 25.8; with mice [9] (10 mg/kg, day 9, individual animals), 26.3 and 25.3 (2×) and 26 and 25.4 and 25.8 and 26.4 and 24.8 and 25 and 24.6; in the data set with mice [9] (10 mg/kg, day 10, individual animals) it was 26.1 and 26 (2×) and 25.3 (3×) and 25.5 and 25.2 and 26.3 and 24.9; in the data set with mice [9] (10 mg/kg, day 11, individual animals), 26.1 (2×) and 25.7 (2×) and 24.8 and 24.6 and 24.4 and 25.4 and 26 and 24.7; with mice [9] (10 mg/kg, day 12, individual animals), 26.1 and 26.9 and 25 (2×) and 27.4 and 25.8 (2×) and 26.2 and 24.9 and 26.6. Moreover, the Body weight with mice [9] (10 mg/kg, day 13, individual animals) is 25.3 (3×) and 26.2 and 26.5 and 27.2 and 26.4 and 27.3 and 25.6 (2×); with mice [9] (10 mg/kg, day 14, individual animals) it was 25.3 and 25.8 and 26.8 (2×) and 25.7 and 26.7 and 27.4 and 26.6 and 26.4 and 27.1; in the data set on mice [9] (10 mg/kg, day 15, individual animals) it was 27.1 and 25.5 and 25.4 and 25.6 and 26.4 (2×) and 25.8 and 27.3 and 26.3 and 26; in the data set on mice [9] (10 mg/kg, day 16, individual animals), 27.2 (2×) and 26.3 and 26.5 and 25.8 and 26.7 and 25.4 and 26.1 and 26.9 and 25.7. Besides, the “serum alanine aminotransferase level (in words)” value with mice [9] (21-day administration) is “significant increase in alanine aminotransferase levels”. Besides, the “serum aspartate aminotransferase and urea levels (in words)” value in the data set with mice [9] (21-day administration) is “comparable”. Further, the “serum creatinine level (in words)” value in the data set on mice [9] (21-day administration) was “marked decreases in creatinine levels”. Further, the ALT in the data set on mice [9] (setting [10]) was 39 and 34 and 31 and 33 and 48 and 37 and 52 and 40. Further, the AST with mice [9] (setting [10]) is 151 and 169 and 124 and 111 and 168 and 222 and 112 and 198 and 207. Also, in the data set with mice [9] (setting [10]), the Cr is 19 and 18 and 20 and 23 and 22.

In the case of “N^4-(1H-indol-5-yl)-N^2-(3-morpholinopropyl)pyrimidine-2,4-diamine [JX3207]”, the “Kir4.1 Inhibition ± SD (%) at 1 μM, +50 mV” value at Kir4.1 (1 μM, +50 mV) was determined as 30.53 ± 6.87%. In addition, the “Kir4.1 Inhibition ± SD (%) at 1 μM, -120 mV” value at Kir4.1 (1 μM, -120 mV) was found to be 27.52 ± 8.17%. Also, the “Kir4.1 Inhibition ± SD (%) at 10 μM, +50 mV” value on Kir4.1 (10 μM, +50 mV) was found to be 93.00 ± 1.73%. Besides, the “Kir4.1 Inhibition ± SD (%) at 10 μM, -120 mV” value at Kir4.1 (10 μM, -120 mV) was 92.47 ± 0.40%. The IC50 in [2] (MDA-MB-468 breast cancer cells) came to 12.3 ± 1.32 µM.
